Structures are written as SMILES. Converted amounts (≈) assume the structure as drawn.

The source of these data is patent publication US11489184B2, “Electrolyte including mixture of active material and precursor thereof” (Foundation for Research and Business, Seoul National …, priority 2020, dated 2022).

What all share (type): physicochemical
Data set [1] is described as follows: Half-cell cyclic voltammetry, kinetic parameters of NQ derivatives. The conditions noted are these: 0.01 M in 1 M KOH; for redox potential difference (average difference of anodic and cathodic redox potentials, ΔEp,avg): glassy carbon electrode, scan rate 10 to 100 mV·s^−1. As to the method:
To observe electrochemical performance of active species, various half-cell tests were performed as follows by using a computer connected potentiostat (SP-240, BioLogic). Ag/AgCl (soaked in 3.0 M NaCl) and Pt wire were used as a reference electrode and a counter electrode, respectively. […] To this end, kinetic parameters of NQ derivatives were measured and compared. To calculate electrochemical properties of NQ derivatives, the CV curves were used. […] A value of D was measured by a Randles-Sevick's equation.

Data set [2] can be described thus: Analysis of reaction of NQ-S to NQ-OH in KOH (cyclic voltammetry and UV-vis spectroscopy). The conditions noted are these: 0.01 M in 1 M KOH, CV; for redox potential: NQ-S right after dissolution. As to the method:
Initially, 0.01 M NQ-S was dissolved in 1 M KOH and then the NQ-S solution was stayed for few hours. Changes in a chemical structure of the NQ-S solution were observed using cyclic voltammetry and UV-vis spectroscopy.
For the UV-vis spectroscopy, the following three samples were prepared: (i) NQ-S that is just dissolved in KOH (sample 1); (ii) NQ-S dissolved in KOH for 6 hours (sample 2); and (iii) pristine Lawsone (sample 3). In FIG. 2B, a peak observed at 455 nm corresponds to a peak for NQ-OH, and the peak was clearly observed in sample 2.

Data set [3] in a line: Analysis of ratio of Lawsone and NQ-S (CV curves). Conditions: 0.1 M NQ-S dissolved in 1 M KOH (one third transformed). As to the method: Samples of Lawsone and NQ-S having different ratios were prepared, and a resistance and a solubility of samples were measured electrochemically (by cyclic voltammetry (CV) and electrochemical impedance spectroscopy (EIS)) and optically (by UV-vis spectroscopy).
[…]; (iv) only Lawsone (0.3 M Lawsone); and (v) only NQ-S (0.3 M NQ-S).

Data set [4] can be described thus: Solubility analysis of NQ derivatives in KOH by UV-vis spectroscopy. The conditions noted are these: 1 M KOH solution, aqueous buffer, thermodynamic from solid, stirred for 24 hours, upper part measured by UV-vis, substance alone.
Procedure: Excessive amounts of solutions of NQ derivatives were prepared. […] When a further period of time elapsed after stirring was stopped, each solution was divided into two parts (upper and lower parts). 400 microliters (L) of the upper part of the solution was collected and observed by a UV-vis spectrometer. An absorbance was measured to determine concentrations of NQ derivatives.
As a control group, a solution with a known concentration of Lawsone was prepared, and UV-vis spectroscopy of the solution was measured. When absorbance peaks of the control group and a sample of NQ derivatives were compared, concentrations of the samples were calibrated and calculated.

In the case of `O=C1C=C(S(=O)(=O)[O-])c2ccccc2C1=O.[Na+]` [NQ-S, 1,2-naphthoquinone-4-sulfonic acid sodium salt], the “redox potential difference (average difference of anodic and cathodic redox potentials, ΔEp,avg)” value in data set [1] was determined as 0.077 V. Also, the “transformation of NQ-S into NQ-OH in KOH” value in data set [2] (staying time 6 hours) is “completely transformed into NQ-OH”. In addition, the redox potential in data set [2] was −0.1 V vs Ag/AgCl. The “desirable NQ-OH formed by transformation of NQ-S” value in data set [3] turned out to be 0.033 M.

As to `O=C1C=C(O)C(=O)c2ccccc21` [Lawsone, 2-hydroxy-1,4-naphthoquinone, reference compound], the “diffusion coefficient D” value in data set [1] (CV, Randles-Sevick's equation) is 1.75·10^−6 cm^2·s^−1. Besides, the “redox potential difference (average difference of anodic and cathodic redox potentials, ΔEp,avg)” value in data set [1] turned out to be 0.077 V. Moreover, in data set [2], the redox potential is reported as −0.55 V vs Ag/AgCl. This compound returned a solubility at 24 h in data set [4] of 420 mM (≈ 73.1 mg/mL).

By solubility is commonly meant the dissolved amount per volume that the medium holds. A lower solubility goes with a poorly soluble substance.
